# Test results from ChEMBL document CHEMBL2311396, “Xanthone derivatives as potential inhibitors of miRNA processing by human Dicer: targeting secondary structures of pre-miRNA by small molecules” (Bioorg Med Chem Lett, 2013).
# Active and inactive are the calls of the source. No cut-off for these calls is given here.
# What was measured:
# [1] = target: Endoribonuclease Dicer (Homo sapiens) (UniProt Q9UPY3); experiment: Inhibition of human recombinant Dicer-mediated long dsRNA digestion assessed as 21- to 23-mer short RNA formation at 200 uM after 3 hrs by denaturing-PAGE analysis
# [2] = target: Endoribonuclease Dicer (Homo sapiens) (UniProt Q9UPY3); experiment: Inhibition of human recombinant Dicer-mediated pre-miR-29a processing assessed as reduction of mature miR-29a formation at 200 uM after 3 hrs by Northern blot analysis
# [3] = target: Endoribonuclease Dicer (Homo sapiens) (UniProt Q9UPY3); experiment: Inhibition of human recombinant Dicer-mediated pre-miR-29a processing assessed as reduction of mature miR-29a formation by Northern blot analysis (reference value: 41%); settings: concentration not given here
# [4] = target: Endoribonuclease Dicer (Homo sapiens) (UniProt Q9UPY3); experiment: Inhibition of human recombinant Dicer-mediated pre-miR-29a without bulge loop processing assessed as reduction of mature miR-29a formation by Northern blot analysis (reference value: 51%); settings: concentration not given here
# [5] = target: Endoribonuclease Dicer (Homo sapiens) (UniProt Q9UPY3); experiment: Inhibition of human recombinant Dicer-mediated pre-miR-29a without internal loop processing assessed as reduction of mature miR-29a formation by Northern blot analysis (reference value: 30%); settings: concentration not given here
# Chain of Endoribonuclease Dicer (Homo sapiens) (Q9UPY3 whole entry): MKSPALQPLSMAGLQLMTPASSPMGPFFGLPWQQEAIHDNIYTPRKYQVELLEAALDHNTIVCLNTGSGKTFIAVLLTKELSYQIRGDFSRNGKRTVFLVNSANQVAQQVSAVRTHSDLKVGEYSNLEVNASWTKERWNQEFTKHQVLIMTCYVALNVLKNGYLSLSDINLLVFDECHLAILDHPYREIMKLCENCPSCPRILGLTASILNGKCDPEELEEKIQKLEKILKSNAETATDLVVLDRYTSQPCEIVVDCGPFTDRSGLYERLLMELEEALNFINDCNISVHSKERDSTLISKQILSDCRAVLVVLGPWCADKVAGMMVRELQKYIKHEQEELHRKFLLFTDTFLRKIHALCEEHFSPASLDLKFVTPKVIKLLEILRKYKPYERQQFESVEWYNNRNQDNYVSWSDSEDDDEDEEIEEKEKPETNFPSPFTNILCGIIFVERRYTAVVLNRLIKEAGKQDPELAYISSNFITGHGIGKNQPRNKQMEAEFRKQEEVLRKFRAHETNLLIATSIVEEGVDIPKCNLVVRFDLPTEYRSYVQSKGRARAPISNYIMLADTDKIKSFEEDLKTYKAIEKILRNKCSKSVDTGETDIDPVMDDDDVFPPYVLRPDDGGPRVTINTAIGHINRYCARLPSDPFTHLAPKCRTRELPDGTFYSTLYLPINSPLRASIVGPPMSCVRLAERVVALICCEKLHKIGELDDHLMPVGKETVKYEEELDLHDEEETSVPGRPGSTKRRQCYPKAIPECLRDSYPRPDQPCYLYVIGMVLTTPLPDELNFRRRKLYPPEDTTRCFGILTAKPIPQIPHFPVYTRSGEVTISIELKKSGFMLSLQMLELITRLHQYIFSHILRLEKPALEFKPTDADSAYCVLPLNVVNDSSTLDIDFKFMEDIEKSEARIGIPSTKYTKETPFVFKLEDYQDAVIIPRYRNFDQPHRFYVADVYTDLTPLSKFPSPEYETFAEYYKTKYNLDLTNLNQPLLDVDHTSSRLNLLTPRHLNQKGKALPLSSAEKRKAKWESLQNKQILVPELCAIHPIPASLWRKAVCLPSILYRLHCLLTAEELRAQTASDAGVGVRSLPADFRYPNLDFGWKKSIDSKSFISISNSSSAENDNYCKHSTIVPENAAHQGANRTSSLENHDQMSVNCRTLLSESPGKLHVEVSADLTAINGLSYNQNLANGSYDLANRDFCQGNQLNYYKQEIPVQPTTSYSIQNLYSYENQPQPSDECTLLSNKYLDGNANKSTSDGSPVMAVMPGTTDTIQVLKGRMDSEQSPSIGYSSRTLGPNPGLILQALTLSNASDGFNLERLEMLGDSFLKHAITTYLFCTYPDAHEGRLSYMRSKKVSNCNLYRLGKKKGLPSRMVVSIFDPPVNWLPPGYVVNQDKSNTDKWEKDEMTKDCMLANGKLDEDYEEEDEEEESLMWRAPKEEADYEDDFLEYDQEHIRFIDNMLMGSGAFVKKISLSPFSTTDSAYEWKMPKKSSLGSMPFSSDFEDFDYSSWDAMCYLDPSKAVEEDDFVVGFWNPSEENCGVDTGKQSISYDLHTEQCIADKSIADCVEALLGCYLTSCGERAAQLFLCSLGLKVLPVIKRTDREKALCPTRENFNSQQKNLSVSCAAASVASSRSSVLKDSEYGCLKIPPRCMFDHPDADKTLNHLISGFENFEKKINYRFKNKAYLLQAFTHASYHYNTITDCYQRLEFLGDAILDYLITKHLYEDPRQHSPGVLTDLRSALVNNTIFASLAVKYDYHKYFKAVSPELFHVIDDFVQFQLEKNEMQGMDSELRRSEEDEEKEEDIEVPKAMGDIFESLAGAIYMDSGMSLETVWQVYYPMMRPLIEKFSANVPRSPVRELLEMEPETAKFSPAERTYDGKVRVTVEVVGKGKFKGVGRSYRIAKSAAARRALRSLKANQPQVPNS
Structure (SMILES),inhibition [1],inhibition [2],inhibition [3] [%],inhibition [4] [%],inhibition [5] [%]
CN(C)CCOc1ccc2oc3ccc(OCCN(C)C)cc3c(=O)c2c1,inactive,inactive,,,
CN(C)CCOc1ccc2sc3ccc(OCCN(C)C)cc3c(=O)c2c1,inactive,inactive,,,
NCCOc1ccc2oc3ccc(OCCN)cc3c(=O)c2c1,inactive,Active,,,
NCCCCCCOc1ccc2oc3ccc(OCCCCCCN)cc3c(=O)c2c1,inactive,inactive,,,
NCCOc1ccc2sc3ccc(OCCN)cc3c(=O)c2c1,inactive,Active,23,46,22
CC(CN)Oc1ccc2oc3ccc(OC(C)CN)cc3c(=O)c2c1 (stereo not given),inactive,inactive,,,
